The series is described as follows: gradient 5% acetonitrile 3 min, to 50% in 2 min, to 85% in 15 min, held 3 min, 100 µL/min. To be noted: column: Zorbax Extend-C18 2.1 x 50 mm; eluents: water / acetonitrile, 0.1% formic acid. In short, it runs like this: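 Mixtures of ~100 pure standards were chromatographed on a Zorbax Extend-C18 column (2.1 × 50 mm, 1.8 μm) at 100 μL/min using water and acetonitrile, each with 0.1% formic acid. Detection used a quadrupole time-of-flight mass spectrometer in positive and negative ionization mode, and data collection spanned 3 months. Retention time was obtained from adduct peaks picked computationally and each checked manually.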
`CC(C)N1C(=O)C(C)(C(=O)Nc2ccc(F)cc2)Oc2cccnc21` (stereo not given): the RP-LC retention time turned out to be 986 s.

On to `COC(=O)c1c(-c2cccc(Cl)c2)noc1NCc1ccccn1`, for which the RP-LC retention time is 897 s.

`Cc1ccc(N(C)S(=O)(=O)c2cc3n(c2)CCCNC3=O)cc1` registered an RP-LC retention time of 663 s.

Compound `Cc1ccc(CNC(=O)C2(CCO)CCN(c3ncccn3)C2)o1` (stereo not given) displayed an RP-LC retention time of 602 s.

In turn, `Cc1ccc(-n2c(N3CCCC(C(=O)NC(C)c4ccc(F)cc4)C3)nc3ccsc3c2=O)cc1` (stereo not given) came in with an RP-LC retention time of 959 s.

With `Cc1ccc(NC(=O)Cn2nc3c(Oc4ccc(C(C)C)cc4)nccn3c2=O)c(C)c1`, the RP-LC retention time stood at 1050 s.

Compound `Cc1c(-c2noc(-c3ccc4c(c3)OCO4)n2)nnn1Cc1ccc(F)cc1` showed an RP-LC retention time of 999 s.

With `CCc1nn2c(CNC(=O)c3ccccc3Cl)c(C)nc2s1`, the RP-LC retention time was found to be 650 s.

`CCNC(=O)C1CCN(S(=O)(=O)c2cc(C(=O)N(C)C)cs2)CC1` had an RP-LC retention time of 624 s.

In turn, `COc1ccc(-c2nnc(COc3cccc(NC(=O)Cc4cccs4)c3)o2)cc1` displayed an RP-LC retention time of 906 s.

`O=C(Nc1nc2ccc([N+](=O)[O-])cc2s1)c1ccc(S(=O)(=O)N2CCCCC2)cc1` came in with an RP-LC retention time of 1020 s.

In turn, `CC(C)N1Cc2cc(C(=O)N3CCC(Cc4ccccc4)CC3)sc2C1` showed an RP-LC retention time of 949 s.

`CCCN(C)C(=O)C1CCCCc2nnc(C(C)C)n21` (stereo not given): the RP-LC retention time was found to be 622 s.

Compound `CCN(CCN(C)C)C(=O)CN1C(=O)C(Oc2ccc(F)cc2)C12CCCCC2` (stereo not given) yielded an RP-LC retention time of 724 s.

`Cc1ccc(-n2ccc(=O)c(-c3nc(-c4ccccc4)no3)n2)cc1` returned an RP-LC retention time of 888 s.

`COc1ccc(-c2noc(CN3CCN(c4ccccn4)CC3)n2)cc1`: the RP-LC retention time was 621 s.

Compound `Fc1ccc(-c2nn3c(CSc4ccccc4)nnc3s2)cc1` yielded an RP-LC retention time of 967 s.

The compound `O=C1CCCC(=O)N1CCS(=O)(=O)N1CCC(c2nnc(-c3ccco3)s2)CC1` returned an RP-LC retention time of 671 s.

`CCN(CCN(C)C)c1ccc(C(=O)O)cc1NS(=O)(=O)c1cc(F)ccc1F`: the RP-LC retention time stood at 611 s.

`COC(=O)C1=C(C)N(C2CCCCC2)C(=O)C1(NC(=O)c1cccc(OC)c1)C(F)(F)F` (stereo not given) displayed an RP-LC retention time of 1070 s.

`CCOc1ccccc1CNC(=O)Cc1cn(C)c2ncccc12` came in with an RP-LC retention time of 739 s.

The compound `COc1cccc(CN2C[C@@H]3C(=O)N(CCN4CCc5ccccc5C4)C(=O)[C@@H]3C2)c1` displayed an RP-LC retention time of 590 s.

Consider `CN1CCC=C(C(=O)N2c3ccccc3Sc3ccc(Cl)cc32)C1`, for which the RP-LC retention time was found to be 762 s.

The compound `Cc1cc(N2CCOCC2)nc(N2CCN(C(=O)c3c(F)cccc3F)CC2)n1` had an RP-LC retention time of 1050 s.

With `CCOCC(=O)N1CCCn2ccnc2C1C1CCCC1` (stereo not given), the RP-LC retention time came out at 587 s.

For the compound `CCOc1ccc(C(=O)N2C[C@@H]3C[C@H]2C[C@@H]3NC(=O)c2ccccc2)cc1`, the RP-LC retention time turned out to be 757 s.

On to `Cc1cc2c(c(=O)n(-c3ccccc3)c(=O)n2CC(=O)Nc2ccc3c(c2)OCO3)n1C`, for which the RP-LC retention time came to 760 s.

For the compound `O=C(Nc1cccc(-c2cn3cccnc3n2)c1)c1ccccc1[N+](=O)[O-]`, the RP-LC retention time came out at 637 s.

As to `C=CCNC(=O)NC1CCN(C2=NS(=O)(=O)C(c3ccccc3)=C2C)CC1`, the RP-LC retention time is 705 s.

Compound `COCCn1cc(CCNC(=O)Nc2ccc(C)cc2)c2cccnc21` yielded an RP-LC retention time of 718 s.

In the case of `CCOC(=O)CNC(=O)NCc1cccn1Cc1ccc(Cl)cc1`, the RP-LC retention time turned out to be 843 s.

As to `O=C(c1ccccc1Cl)N1CCN=C1N1CCCCC1`, the RP-LC retention time was 638 s.

As for `CCS(=O)(=O)N1CC(=O)N(c2ccccc2C)C(C)(C(=O)NCc2ccc(F)cc2)C1` (stereo not given), the RP-LC retention time was determined as 809 s.

Compound `Cn1cc(S(=O)(=O)NCc2ccc(F)cc2Cl)c2cccnc21` displayed an RP-LC retention time of 821 s.

Compound `CCOC(=O)C1=C(CNc2ccc(F)cc2F)NC(=O)NC1c1ccccc1` (stereo not given) showed an RP-LC retention time of 886 s.

In turn, `Cc1ccc(Oc2ccc(NS(=O)(=O)c3ccc(F)cc3F)cc2)nn1` yielded an RP-LC retention time of 720 s.

On to `O=C(Nc1ccc(F)cc1)C1CCCN(c2cnc3nccnc3c2)C1` (stereo not given), for which the RP-LC retention time came to 736 s.

The compound `CN1C(=O)CCc2cc(NS(=O)(=O)Cc3cccc(Cl)c3)ccc21` gave an RP-LC retention time of 751 s.

`O=C([C@@H]1C[C@H](F)CN1S(=O)(=O)c1ccccc1)N1CCOCC1`: the RP-LC retention time came out at 643 s.

`O=C(NC1CCc2ccccc21)C1CCN(c2ncccc2-c2nc(-c3cccc(F)c3)no2)CC1` (stereo not given) yielded an RP-LC retention time of 1160 s.

As for `O=c1c2cc3c(cc2nc(SCc2nc(-c4ccccc4)no2)n1CC1CCCO1)OCO3` (stereo not given), the RP-LC retention time worked out at 1100 s.

`O=C(Nc1nnc(Cc2ccccc2)s1)C1CCN(C(=O)c2ccccc2)CC1`: the RP-LC retention time turned out to be 767 s.

Compound `CC1CCN(C(=O)c2ccc(-c3ccsc3)nc2)CC1` displayed an RP-LC retention time of 876 s.

As to `COc1ccc(-c2noc(Cn3cnc4c(cnn4-c4ccc(Cl)cc4)c3=O)n2)cc1`, the RP-LC retention time was 1120 s.

As for `Cc1ccc(-c2nc3ncccn3c2Nc2cc(C)ccc2C)cc1`, the RP-LC retention time came to 825 s.

The compound `O=C(CSCc1ccccc1)Nc1cc(=O)[nH]c(=O)[nH]1` had an RP-LC retention time of 629 s.

With `COC(=O)c1cc2c(=O)n(-c3ccc(Cl)c(Cl)c3)ccc2nc1C`, the RP-LC retention time is 915 s.

With `O=C(NC1CCN(c2cc(-c3ccccc3)[nH]n2)C1)c1cccc(Cl)c1` (stereo not given), the RP-LC retention time was 763 s.

The compound `COc1cc2c(cc1OC)CN(C(=O)CCc1sc(C)nc1-c1cccs1)CC2` displayed an RP-LC retention time of 799 s.

`Nc1cc(C2CCN(C(=O)Nc3cccc(Cl)c3F)CC2)no1`: the RP-LC retention time came out at 676 s.

`O=C(NC1(c2nc(-c3ccccc3)no2)CCCCC1)c1cccc(F)c1` yielded an RP-LC retention time of 1180 s.

Compound `O=C(Nc1cccc([N+](=O)[O-])c1)NC1CCS(=O)(=O)C1` (stereo not given) displayed an RP-LC retention time of 626 s.

As to `CCCn1c(=O)c2cc(C(=O)Nc3cccc(C)c3)nn2c2ccccc21`, the RP-LC retention time was 1080 s.

For the compound `CCCn1cc(S(=O)(=O)N2CCN(c3ccccc3Cl)CC2)c2cccnc21`, the RP-LC retention time came to 1150 s.

In turn, `Cc1ccc(S(=O)(=O)N2CCC(CC(=O)N3CCN(c4ccccn4)CC3)CC2)cc1` came in with an RP-LC retention time of 701 s.

`COc1ccc(OC)c(-c2ccc(=O)n(CCc3nc(-c4cccc(F)c4)no3)n2)c1`: the RP-LC retention time is 974 s.

On to `Cc1sc2ccn(CC(C)C)c(=O)c2c1C(=O)O`, for which the RP-LC retention time came to 863 s.

The compound `CCn1c(C(=O)N2CCN(Cc3ccccc3)CC2)cc2c(-c3cccs3)nn(-c3ccccc3)c21` gave an RP-LC retention time of 819 s.

For the compound `Cc1ccnc(N2CCCC(C(=O)NCC3CCN(Cc4cccc(F)c4)CC3)C2)n1` (stereo not given), the RP-LC retention time was 579 s.

`O=C(c1ccc(OCC2CCCN2C(=O)COc2ccc(F)cc2)cc1)N1CCOCC1` (stereo not given) displayed an RP-LC retention time of 778 s.

The compound `Cc1cc2cc3n(c2nn1)N=C(Cl)CC3` showed an RP-LC retention time of 610 s.

As for `Cn1c(=O)c2c(nc3n(CCN4CCOCC4)c(C(C)(C)C)cn23)n(C)c1=O`, the RP-LC retention time worked out at 552 s.

`CC(=O)OC1CCN(C(=O)NC(C)(C)C)CC1` showed an RP-LC retention time of 696 s.

Turning to `COc1ccc(-c2noc(Cn3c(=O)n(CC4CCCO4)c(=O)c4ccccc43)n2)cc1OC` (stereo not given), the RP-LC retention time came to 828 s.

In the case of `CCc1ccccc1NC(=O)Cn1nc2cc(C)nc(Nc3ccccc3)n2c1=O`, the RP-LC retention time worked out at 1050 s.

For the compound `Cc1nn(CC(=O)Nc2ccc(Cl)cc2F)c(=O)c2noc(C)c12`, the RP-LC retention time came to 796 s.

`O=C(CN1CCN(Cc2ccc(F)cc2)C1=O)NC1CC1`: the RP-LC retention time is 649 s.

The compound `Cc1cccc(N(C)C(=O)Cn2c(N3CCc4ccccc4C3)nc(C)cc2=O)c1` yielded an RP-LC retention time of 850 s.

As for `CCN1C=C(C(=O)OCc2ccccc2C)C(C)=NS1(=O)=O`, the RP-LC retention time was found to be 1030 s.

For `Cc1[nH]c(C)c(S(=O)(=O)N2CCC(C(=O)N3CCC(C)CC3)CC2)c1C(=O)N1CCCCC1`, the RP-LC retention time was found to be 760 s.

As to `COc1ccccc1Oc1ccc(S(=O)(=O)N2CCCC2)cc1`, the RP-LC retention time was 914 s.

As to `CCOc1ccc(S(=O)(=O)N2CCCC(C(=O)NCc3cccnc3)C2)cc1C` (stereo not given), the RP-LC retention time came out at 685 s.

The compound `CCNC(=O)CN1C(=O)CCSc2ccccc21` returned an RP-LC retention time of 664 s.

`C=CCN1C(=O)COc2ccc(-c3nc(NC(=O)CCC4CCCCC4)sc3C)cc21` returned an RP-LC retention time of 1220 s.

`CCCNc1cc(N2CCC(CCC(=O)NC3CCN(Cc4ccccc4)CC3)CC2)ncn1` showed an RP-LC retention time of 572 s.

The compound `COC(=O)c1ccc(NC(=O)N2CCOc3ccc(Cl)cc32)cc1` yielded an RP-LC retention time of 1000 s.

Consider `COc1cc(NC(=O)c2ncoc2-c2ccc(C)o2)cc(OC)c1OC`, for which the RP-LC retention time was determined as 920 s.

For the compound `O=C(Cc1csc2nc(-c3ccccc3)cn12)NCc1ccc(Br)cc1`, the RP-LC retention time was determined as 815 s.

In the case of `CCn1cc(-c2ccc(Cl)cc2)cc1C(=O)N(C)C`, the RP-LC retention time is 957 s.

In turn, `Cc1ccc(S(=O)(=O)N2C(=O)CCC2C(=O)Nc2ccc(C)c(F)c2)cc1C` (stereo not given) came in with an RP-LC retention time of 1020 s.

Source of the values: the METLIN SMRT retention time set (Domingo-Almenara et al. 2019).
